Measurements: PubChem BioAssay AID190 (DTP/NCI, 2004)
Values joined by “and” are separate entries in the source; they are usually repeats but may differ in a detail not shown here. Identical values can stand only once. Toxic doses and inconclusive results are not listed.

Test system: AKR/Lw mice, AKR lymphoma ip, median survival T/C
Assay: NCI In Vivo Anticancer Drug Screen. Data for tumor model Lymphoma AKR (Transplanted) (intraperitoneal) in AKR/Lw mice
Conditions: endpoint: median survival time, higher = longer survival
Method: The antitumor activity of compounds was measured in mice bearing transplantable tumors. Survival or tumor size were measured and the results are expressed as the measurement made in the treated group (T) divided by the measurement made in the vehicle treated control group (C). The tumor model used in this assay is Lymphoma AKR (Transplanted) (intraperitoneal) in AKR/Lw mice

[1] = dose: 12.5 mg/kg/injection, schedule: Q01DX001 (ip), vehicle: saline
[2] = dose: 100.0 mg/kg/injection, schedule: Q04DX003 (ip), vehicle: Klucel (hydroxypropylcellulose) (HPC)
[3] = dose: 200.0 mg/kg/injection, schedule: Q01DX001 (ip), vehicle: Klucel (hydroxypropylcellulose) (HPC)
[4] = dose: 400.0 mg/kg/injection, schedule: Q01DX001 (ip), vehicle: Klucel (hydroxypropylcellulose) (HPC)

Nc1ncn(C2OC(CO)C(O)C2O)c(=O)n1 (stereo unspecified)
T/C (dose: 0.06 mg/kg/injection, schedule: Q04DX008 (ip), vehicle: saline): 116 % of control
T/C (dose: 0.12 mg/kg/injection, schedule: Q04DX004 (ip), vehicle: saline): 109 % of control
T/C (dose: 0.25 mg/kg/injection, schedule: Q04DX004 (ip), vehicle: saline): 118 % of control
T/C (dose: 0.38 mg/kg/injection, schedule: Q04DX003 (ip), vehicle: saline): 88 % of control
T/C (dose: 0.5 mg/kg/injection, schedule: Q04DX008 (ip), vehicle: saline): 180 % of control
T/C (dose: 0.75 mg/kg/injection, schedule: Q01DX009 (ip), vehicle: water): 240 % of control
T/C (dose: 1.0 mg/kg/injection, schedule: Q04DX004 (ip), vehicle: saline): 152 % of control
T/C (dose: 1.0 mg/kg/injection, schedule: Q04DX008 (ip), vehicle: saline): 155 % of control
T/C (dose: 1.5 mg/kg/injection, schedule: Q01DX009 (ip), vehicle: saline): 92 % of control
T/C (dose: 1.5 mg/kg/injection, schedule: Q01DX009 (ip), vehicle: water): 153 % of control
T/C (dose: 2.0 mg/kg/injection, schedule: Q04DX004 (ip), vehicle: saline): 185 % of control
T/C (dose: 2.0 mg/kg/injection, schedule: Q04DX008 (ip), vehicle: saline): 159 % of control
T/C (dose: 2.5 mg/kg/injection, schedule: Q01DX001 (ip), vehicle: saline): 95 % of control and 114 % of control
T/C (dose: 2.5 mg/kg/injection, schedule: Q04DX003 (ip), vehicle: saline): 122 % of control
T/C (dose: 3.0 mg/kg/injection, schedule: Q01DX009 (ip), vehicle: water): 265 % of control
T/C (dose: 3.0 mg/kg/injection, schedule: Q04DX004 (ip), vehicle: saline): 150 % of control and 252 % of control
T/C (dose: 3.0 mg/kg/injection, schedule: Q04DX008 (ip), vehicle: saline): 150 % of control
T/C (dose: 4.4 mg/kg/injection, schedule: Q04DX004 (ip), vehicle: saline): 163 % of control and 223 % of control
T/C (dose: 4.4 mg/kg/injection, schedule: Q04DX008 (ip), vehicle: saline): 166 % of control and 180 % of control
T/C (dose: 5.0 mg/kg/injection, schedule: Q04DX003 (ip), vehicle: saline): 124 % of control
T/C (dose: 6.0 mg/kg/injection, schedule: Q01DX001 (ip), vehicle: saline): 92 % of control and 121 % of control
T/C (dose: 6.0 mg/kg/injection, schedule: Q01DX009 (ip), vehicle: water): 96 % of control
T/C (dose: 6.25 mg/kg/injection, schedule: Q01DX001 (ip), vehicle: saline): 90 % of control
T/C (dose: 10.0 mg/kg/injection, schedule: Q04DX003 (ip), vehicle: saline): 124 % of control
T/C (dose: 10.0 mg/kg/injection, schedule: Q04DX004 (ip), vehicle: saline): 163 % of control
T/C (dose: 10.0 mg/kg/injection, schedule: Q04DX008 (ip), vehicle: saline): 152 % of control and 169 % of control
T/C (dose: 12.0 mg/kg/injection, schedule: Q01DX001 (ip), vehicle: saline with Tween-80): 162 % of control
T/C (dose: 12.0 mg/kg/injection, schedule: Q01DX001 (ip), vehicle: saline): 92 % of control and 121 % of control
T/C (dose: 12.0 mg/kg/injection, schedule: Q04DX003 (ip), vehicle: water): 166 % of control
T/C [1]: 105 % of control and 112 % of control
T/C (dose: 24.0 mg/kg/injection, schedule: Q01DX001 (ip), vehicle: saline with Tween-80): 178 % of control
T/C (dose: 30.0 mg/kg/injection, schedule: Q01DX001 (ip), vehicle: saline): 164 % of control
T/C (dose: 40.0 mg/kg/injection, schedule: Q01DX001 (ip), vehicle: saline): 103 % of control
T/C (dose: 48.0 mg/kg/injection, schedule: Q01DX001 (ip), vehicle: saline with Tween-80): 206 % of control
T/C (dose: 80.0 mg/kg/injection, schedule: Q01DX001 (ip), vehicle: saline): 119 % of control
T/C (dose: 96.0 mg/kg/injection, schedule: Q01DX001 (ip), vehicle: saline with Tween-80): 375 % of control
T/C (dose: 15.0 micrograms/kg/injection, schedule: Q01DX009 (ip), vehicle: saline): 113 % of control
T/C (dose: 30.0 micrograms/kg/injection, schedule: Q01DX009 (ip), vehicle: saline): 165 % of control
T/C (dose: 60.0 micrograms/kg/injection, schedule: Q01DX009 (ip), vehicle: saline): 150 % of control

O=C(Cc1ccc2cc3c(cc2c1)OCO3)NCCc1ccc2c(c1)OCO2
T/C (dose: 100.0 mg/kg/injection, schedule: Q01DX001 (ip), vehicle: Klucel (hydroxypropylcellulose) (HPC)): 92 % of control
T/C [2]: 100 % of control
T/C [3]: 94 % of control
T/C (dose: 200.0 mg/kg/injection, schedule: Q04DX003 (ip), vehicle: Klucel (hydroxypropylcellulose) (HPC)): 96 % of control
T/C [4]: 100 % of control
T/C (dose: 400.0 mg/kg/injection, schedule: Q04DX003 (ip), vehicle: Klucel (hydroxypropylcellulose) (HPC)): 92 % of control

O=NN(CCCl)C(=O)NC1CC2CCC1C2 (stereo unspecified)
T/C (dose: 0.31 mg/kg/injection, schedule: Q04DX004 (ip), vehicle: Klucel (hydroxypropylcellulose) (HPC)): 115 % of control
T/C (dose: 0.62 mg/kg/injection, schedule: Q04DX004 (ip), vehicle: Klucel (hydroxypropylcellulose) (HPC)): 93 % of control
T/C (dose: 0.75 mg/kg/injection, schedule: Q04DX008 (ip), vehicle: Klucel (hydroxypropylcellulose) (HPC)): 102 % of control
T/C (dose: 1.25 mg/kg/injection, schedule: Q04DX004 (ip), vehicle: Klucel (hydroxypropylcellulose) (HPC)): 112 % of control
T/C (dose: 1.5 mg/kg/injection, schedule: Q04DX008 (ip), vehicle: Klucel (hydroxypropylcellulose) (HPC)): 108 % of control
T/C (dose: 2.5 mg/kg/injection, schedule: Q04DX004 (ip), vehicle: Klucel (hydroxypropylcellulose) (HPC)): 112 % of control
T/C (dose: 5.0 mg/kg/injection, schedule: Q04DX004 (ip), vehicle: Klucel (hydroxypropylcellulose) (HPC)): 120 % of control
T/C (dose: 5.0 mg/kg/injection, schedule: Q04DX008 (ip), vehicle: Klucel (hydroxypropylcellulose) (HPC)): 150 % of control
T/C (dose: 10.0 mg/kg/injection, schedule: Q04DX004 (ip), vehicle: Klucel (hydroxypropylcellulose) (HPC)): 114 % of control
T/C (dose: 20.0 mg/kg/injection, schedule: Q04DX004 (ip), vehicle: Klucel (hydroxypropylcellulose) (HPC)): 114 % of control

c1ccc(CC(Cc2ccccc2)=[N+]2CCCC2)cc1
T/C (dose: 100.0 mg/kg/injection, schedule: Q01DX001 (ip), vehicle: saline): 97 % of control
T/C (dose: 200.0 mg/kg/injection, schedule: Q01DX001 (ip), vehicle: saline): 88 % of control
T/C (dose: 400.0 mg/kg/injection, schedule: Q01DX001 (ip), vehicle: saline): 88 % of control

CC(C)c1c[nH]c(=O)[nH]c1=O
T/C (dose: 25.0 mg/kg/injection, schedule: Q04DX003 (ip), vehicle: Klucel (hydroxypropylcellulose) (HPC)): 97 % of control
T/C (dose: 50.0 mg/kg/injection, schedule: Q04DX003 (ip), vehicle: Klucel (hydroxypropylcellulose) (HPC)): 94 % of control
T/C [2]: 94 % of control
T/C [3]: 86 % of control
T/C [4]: 92 % of control

CS(=O)(=O)OCCCNCCCOS(C)(=O)=O
T/C (dose: 1.6 mg/kg/injection, schedule: Q01DX009 (ip), vehicle: saline): 94 % of control
T/C (dose: 1.9 mg/kg/injection, schedule: Q01DX009 (ip), vehicle: saline): 96 % of control
T/C (dose: 2.0 mg/kg/injection, schedule: Q01DX009 (ip), vehicle: saline): 107 % of control
T/C (dose: 3.1 mg/kg/injection, schedule: Q01DX009 (ip), vehicle: saline): 88 % of control and 100 % of control and 115 % of control
T/C (dose: 3.8 mg/kg/injection, schedule: Q01DX009 (ip), vehicle: saline): 106 % of control
T/C (dose: 4.0 mg/kg/injection, schedule: Q01DX009 (ip), vehicle: saline): 103 % of control
T/C (dose: 6.2 mg/kg/injection, schedule: Q01DX009 (ip), vehicle: saline): 102 % of control
T/C (dose: 6.3 mg/kg/injection, schedule: Q01DX009 (ip), vehicle: saline): 97 % of control
T/C (dose: 8.0 mg/kg/injection, schedule: Q01DX009 (ip), vehicle: saline): 100 % of control
T/C [1]: 124 % of control
T/C (dose: 12.5 mg/kg/injection, schedule: Q04DX003 (ip), vehicle: saline): 102 % of control and 106 % of control
T/C (dose: 25.0 mg/kg/injection, schedule: Q01DX001 (ip), vehicle: saline): 110 % of control
T/C (dose: 25.0 mg/kg/injection, schedule: Q04DX003 (ip), vehicle: saline): 106 % of control and 112 % of control
T/C (dose: 27.0 mg/kg/injection, schedule: Q04DX003 (ip), vehicle: water): 113 % of control
T/C (dose: 45.0 mg/kg/injection, schedule: Q01DX001 (ip), vehicle: saline): 112 % of control
T/C (dose: 60.0 mg/kg/injection, schedule: Q01DX009 (ip), vehicle: saline): 100 % of control and 123 % of control
T/C (dose: 75.0 mg/kg/injection, schedule: Q01DX001 (ip), vehicle: saline): 108 % of control
T/C (dose: 108.0 mg/kg/injection, schedule: Q04DX003 (ip), vehicle: water): 192 % of control
